Counter-ions that a name gives are not always drawn. Like-named read-outs stand apart in the source and are kept apart here.
Key:
IL-23p19 = experiment: LPS induced IL23p19 in THP-1 cells (with IFNγ primed) assay; assay type: cell-based, Human; conditions: THP-1 cells, IFNγ primed, LPS 1 ug/mL, 18 hours, 10 pt, read-out: IL23-p19 ELISA, THP1-IFNy, LPS, 10 pt EC50
Procedure, shortened: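 Readout is secreted IL-23p19, quantified by chemiluminescent sandwich ELISA after 18 h LPS (1 ug/mL) stimulation of THP-1 cells that had been IFNγ-primed (50 ng/mL, ~18 h) and given compound 1 h beforehand at 37 °C. EC50 derived by curve fit; cytotoxicity tracked with Cell Titer Glo.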

IL-23 (p19/p40) = experiment: IL23-p19 ELISA, Dendritic, LPS (compound screening using DC cells); assay type: cell-based, Human; conditions: PBMC-derived DC cells, IFNγ primed, LPS 1 μg/ml, 18 hours, 10 pt, read-out: IL23-p19 ELISA, Dendritic, LPS, 10 pt, EC50
Procedure, shortened: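 IL-23 in supernatants quantified by sandwich ELISA (anti-p19 capture, biotinylated anti-p40 detection, chemiluminescent readout) after 18 h LPS (1 μg/ml) stimulation. Cells were monocyte-derived DCs (GM-CSF/IL-4, 7 d), IFNγ-primed 24 h and given compound 1 h before LPS; viability by CellTiter Glo.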

| EC50 (IL-23p19; Homo sapiens, THP-1, 18 h) | EC50 (IL-23 (p19/p40); Homo sapiens, 18 h) | SMILES | further results |
| --- | --- | --- | --- |
| 0.0524 µM | 0.0475 µM | CC(C)O[C@H]1C[C@@H](n2cc(NC(=O)c3csc(-c4cn[nH]c4)n3)c(-c3ccccn3)n2)C1 [II-76, N-(1-((1,3-cis)-3-isopropoxycyclobutyl)-3-(pyridin-2-yl)-1H-pyrazol-4-yl)-2-(1H-pyrazol-4-yl)thiazole-4-carboxamide] | – |
| 0.0615 µM | 0.564 µM | CCO[C@H]1C[C@@H](n2cc(NC(=O)c3csc(-c4cn[nH]c4)n3)c(-c3ncccc3F)n2)C1 [II-157, N-(1-((cis)-3-ethoxycyclobutyl)-3-(3-fluoropyridin-2-yl)-1H-pyrazol-4-yl)-2-(1H-pyrazol-4-yl)thiazole-4-carboxamide] | – |
| – | – | COCCn1cc(NC(=O)c2ccc(-c3c[nH]nc3C)o2)c(-c2ccccn2)n1 [Compound I-9, N-(1-(2-methoxyethyl)-3-(pyridin-2-yl)-1H-pyrazol-4-yl)-5-(3-methyl-1H-pyrazol-4-yl)furan-2-carboxamide] | EC50 (IL-23p19): 0.281 µM; EC50 (IL-23 (p19/p40)): 0.309 µM |
| 0.129 µM | 0.129 µM | O=C(Nc1cn(CC2CCOCC2)nc1-c1ccccn1)c1csc(-c2cn[nH]c2)n1 [II-45, 2-(1H-pyrazol-4-yl)-N-(3-(pyridin-2-yl)-1-((tetrahydro-2H-pyran-4-yl)methyl)-1H-pyrazol-4-yl)thiazole-4-carboxamide formic acid salt] | – |
| 1.5 µM | 2.31 µM | COc1ccc(Cn2cc(-c3nc(C(=O)Nc4cn(CC(O)(C(F)(F)F)C(F)(F)F)nc4-c4ccccn4)cs3)cn2)cc1 [II-107, 2-(1-(4-methoxybenzyl)-1H-pyrazol-4-yl)-N-(3-(pyridin-2-yl)-1-(3,3,3-trifluoro-2-hydroxy-2-(trifluoromethyl)propyl)-1H-pyrazol-4-yl)thiazole-4-carboxamide] | – |
| – | – | COCCOCCn1cc(NC(=O)c2ccc(-c3cn[nH]c3)o2)c(-c2ccccn2)n1 [Compound I-17, N-(1-(2-(2-methoxyethoxy)ethyl)-3-(pyridin-2-yl)-1H-pyrazol-4-yl)-5-(1H-pyrazol-4-yl)furan-2-carboxamide hydrochloride salt] | EC50 (IL-23p19; hydrochloride salt): 0.285 µM; EC50 (IL-23 (p19/p40); hydrochloride salt): 0.424 µM |
| 0.176 µM | 0.218 µM | CCO[C@H]1C[C@@H](n2cc(NC(=O)c3csc(-c4cn[nH]c4)n3)c(-c3cccc(C(F)(F)F)n3)n2)C1 [II-90, N-(1-((1,3-cis)-3-ethoxycyclobutyl)-3-(6-(trifluoromethyl)pyridin-2-yl)-1H-pyrazol-4-yl)-2-(1H-pyrazol-4-yl)thiazole-4-carboxamide] | – |
| 0.238 µM | 0.217 µM | COCCOCCn1cc(NC(=O)c2coc(-c3cc[nH]n3)n2)c(-c2ccccn2)n1 [III-6, N-(1-(2-(2-methoxyethoxy)ethyl)-3-(pyridin-2-yl)-1H-pyrazol-4-yl)-2-(1H-pyrazol-3-yl)oxazole-4-carboxamide] | – |
| 0.0414 µM | 0.314 µM | CCO[C@H]1C[C@@H](n2cc(NC(=O)c3csc(-c4cnn(COP(=O)(O)O)c4)n3)c(-c3cccc(F)n3)n2)C1 [II-173, (4-(4-((1-((cis)-3-ethoxycyclobutyl)-3-(6-fluoropyridin-2-yl)-1H-pyrazol-4-yl)carbamoyl)thiazol-2-yl)-1H-pyrazol-1-yl)methyl dihydrogen phosphate] | – |
| 0.401 µM | 0.405 µM | CCO[C@H]1C[C@@H](n2cc(NC(=O)c3csc(-c4cn[nH]c4)n3)c(-c3nnco3)n2)C1 [II-74, N-(1-((1s,3s)-3-ethoxycyclobutyl)-3-(1,3,4-oxadiazol-2-yl)-1H-pyrazol-4-yl)-2-(1H-pyrazol-4-yl)thiazole-4-carboxamide] | – |
| 0.102 µM | 0.225 µM | O=C(Nc1cn(C2CC(F)(F)C2)nc1-c1ccccn1)c1csc(-c2cn[nH]c2)n1 [II-134, N-(1-(3,3-difluorocyclobutyl)-3-(pyridin-2-yl)-1H-pyrazol-4-yl)-2-(1H-pyrazol-4-yl)thiazole-4-carboxamide] | – |
| 0.119 µM | 0.0373 µM | CCO[C@H]1CC[C@H](n2cc(NC(=O)c3csc(-c4cn[nH]c4)n3)c(-c3nnco3)n2)CC1 [II-178, N-(1-((1r,4r)-4-ethoxycyclohexyl)-3-(1,3,4-oxadiazol-2-yl)-1H-pyrazol-4-yl)-2-(1H-pyrazol-4-yl)thiazole-4-carboxamide] | – |
| 0.0413 µM | 0.0188 µM | Cc1n[nH]cc1-c1nc(C(=O)Nc2cn(C3COC3)nc2-c2ccccn2)cs1 [II-41, 2-(3-methyl-1H-pyrazol-4-yl)-N-(1-(oxetan-3-yl)-3-(pyridin-2-yl)-1H-pyrazol-4-yl)thiazole-4-carboxamide, formic acid salt] | – |
| – | – | CCOCCn1cc(NC(=O)c2ccc(-c3cn[nH]c3)o2)c(-c2ccccn2)n1 [Compound I-38, N-(1-(2-ethoxyethyl)-3-(pyridin-2-yl)-1H-pyrazol-4-yl)-5-(1H-pyrazol-4-yl)furan-2-carboxamide] | EC50 (IL-23p19): 0.172 µM; EC50 (IL-23 (p19/p40)): 0.0582 µM |
| 0.066 µM | 0.0784 µM | CCO[C@H]1CC[C@H](n2cc(NC(=O)c3csc(-c4cn[nH]c4)n3)c(-c3ccccn3)n2)CC1 [II-145, N-(1-((trans)-4-ethoxycyclohexyl)-3-(pyridin-2-yl)-1H-pyrazol-4-yl)-2-(1H-pyrazol-4-yl)thiazole-4-carboxamide] | – |
| 21.9 µM | 3.27 µM | COCCn1cc(NC(=O)c2ccc(-c3cnn(COP(=O)(OC(C)(C)C)OC(C)(C)C)c3)o2)c(-c2ccccn2)n1 [Compound I-10, di-tert-butyl ((4-(5-((1-(2-methoxyethyl)-3-(pyridin-2-yl)-1H-pyrazol-4-yl)carbamoyl)furan-2-yl)-1H-pyrazol-1-yl)methyl) phosphate] | – |
| 0.88 µM | 0.429 µM | COCCn1cc(NC(=O)c2ccc(-c3c[nH]nc3C)o2)c(-c2ncccn2)n1 [Compound I-8, N-(1-(2-methoxyethyl)-3-(pyrimidin-2-yl)-1H-pyrazol-4-yl)-5-(3-methyl-1H-pyrazol-4-yl)furan-2-carboxamide] | – |
| 0.0487 µM | 0.081 µM | [2H]C([2H])([2H])C([2H])([2H])O[C@H]1C[C@@H](n2cc(NC(=O)c3csc(-c4cn[nH]c4)n3)c(-c3ccccn3)n2)C1 [II-127, N-(1-((1s,3s)-3-(ethoxy-d5)cyclobutyl)-3-(pyridin-2-yl)-1H-pyrazol-4-yl)-2-(1H-pyrazol-4-yl)thiazole-4-carboxamide] | – |
| 1.22 µM | 10.7 µM | N#Cc1nn([C@H]2C[C@@H](O)C2)cc1NC(=O)c1csc(-c2cn[nH]c2)n1 [II-136, N-(3-cyano-1-((1s,3s)-3-hydroxycyclobutyl)-1H-pyrazol-4-yl)-2-(1H-pyrazol-4-yl)thiazole-4-carboxamide] | – |
| – | – | COC1CC(n2cc(NC(=O)c3ccc(-c4cn[nH]c4)o3)c(-c3ccccn3)n2)C1 (stereo not drawn) [Compound I-71, N-{1-(3-Methoxycyclobutyl)-3-(pyridine-2-yl)-1H-pyrazol-4-yl}-5-(1H-pyrazol-4-yl)furan-2-carboxamide, formate salt, Cis isomer] | EC50 (IL-23p19): 0.0265 µM; EC50 (IL-23 (p19/p40)): 0.0225 µM |
| 0.0913 µM | 0.365 µM | O=C(Nc1cn(C(F)F)nc1-c1ccccn1)c1ccc(-c2cn[nH]c2)o1 [Compound I-115, N-(1-(difluoromethyl)-3-(pyridin-2-yl)-1H-pyrazol-4-yl)-5-(1H-pyrazol-4-yl)furan-2-carboxamide] | – |
| 0.0837 µM | 0.457 µM | Cc1n[nH]cc1-c1nc(C(=O)Nc2cn(C(F)F)nc2-c2ccccn2)cs1 [II-96, N-(1-(difluoromethyl)-3-(pyridin-2-yl)-1H-pyrazol-4-yl)-2-(3-methyl-1H-pyrazol-4-yl)thiazole-4-carboxamide] | – |

— patent US10208074B2, “Pyrazole compounds and method for making and using the compounds” (Rigel Pharmaceuticals, Inc., priority 2015, dated 2019)
